From ChEMBL document CHEMBL1201862, “PubChem BioAssay data set” (2004)
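Exposure lasted 48 hours, with cells grown in 96-well plates and compounds tested at five concentrations. GI50 marks 50% less growth.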 Activity calls are given as the source filed them. No stated cut-off is given here; in the data, active = GI50 up to about 1.1 µM and inactive = higher.

What was measured:
Test in all cases: growth of human tumour cells (NCI), 48 h
[1] = test system: ACHN
[2] = test system: COLO 205
[3] = test system: DU-145
[4] = test system: EKVX
[5] = test system: HCT-15
[6] = test system: HOP-62
[7] = test system: K562
[8] = test system: MCF7
[9] = test system: MDA-N
[10] = test system: MOLT-4
[11] = test system: Malme-3M
[12] = test system: NCI-H460
[13] = test system: NCI-H522
[14] = test system: NCI/ADR-RES
[15] = test system: SF-268
[16] = test system: SN12C
[17] = test system: U-251
[18] = test system: UO-31
[19] = test system: SK-MEL-2

Structure (SMILES) | GI50 [1] | GI50 [2] | GI50 [3] | GI50 [4] | GI50 [5] [µM] | GI50 [6] | GI50 [7] | GI50 [8] | GI50 [9] | GI50 [10] | GI50 [11] | GI50 [12] | GI50 [13] | GI50 [14] | GI50 [15] | GI50 [16] | GI50 [17] | GI50 [18] | GI50 [19]
CC(=O)Nc1ccc2c(c1)/C(=N/c1ccc(C(=O)O)cc1)c1ccccc1-2 | > 100 µM (inactive) | 57.3 µM (inactive) | > 100 µM (inactive) | 45.9 µM (inactive) | 43.9 | 86.1 µM (inactive) | 63.1 µM (inactive) | 2.42 µM (inactive) | > 100 µM (inactive) | 32.1 µM (inactive) | > 100 µM (inactive) | 44.7 µM (inactive) | 70 µM (inactive) | 95.1 µM (inactive) | > 100 µM (inactive) | > 100 µM (inactive) | > 100 µM (inactive) | 38.3 µM (inactive) | –
C=CC(C)(C)c1cc([C@@H]2COc3cc(O)ccc3C2=O)c(O)c(OC)c1OC | 16.2 µM (inactive) | 22 µM (inactive) | 14.8 µM (inactive) | 12.1 µM (inactive) | 14 | – | 9.66 µM (inactive) | 14.8 µM (inactive) | 7.6 µM (inactive) | 7.01 µM (inactive) | 10.8 µM (inactive) | 17.4 µM (inactive) | 4.25 µM (inactive) | 12.6 µM (inactive) | 12.6 µM (inactive) | 16.3 µM (inactive) | 13.5 µM (inactive) | 10.9 µM (inactive) | 15.9 µM (inactive)
CCOC(=O)c1cn2c(n1)sc1cccc(C)c12 | > 100 µM (inactive) | > 100 µM (inactive) | > 100 µM (inactive) | 52.6 µM (inactive) | > 100 | > 100 µM (inactive) | – | > 100 µM (inactive) | > 100 µM (inactive) | – | > 100 µM (inactive) | 71.8 µM (inactive) | > 100 µM (inactive) | > 100 µM (inactive) | > 100 µM (inactive) | – | – | 72.8 µM (inactive) | –
COc1ccc(/C=C2\N=C3NC(=O)C(N4CCOCC4)=C(N)N3C2=O)cc1 | 75.9 µM (inactive) | > 100 µM (inactive) | > 100 µM (inactive) | 69.7 µM (inactive) | > 100 | – | 6.7 µM (inactive) | > 100 µM (inactive) | > 100 µM (inactive) | > 100 µM (inactive) | > 100 µM (inactive) | – | 75.3 µM (inactive) | > 100 µM (inactive) | 76.2 µM (inactive) | > 100 µM (inactive) | 53.7 µM (inactive) | > 100 µM (inactive) | –
CN1CCN(Cn2nc(COc3ccccc3Cl)n(/N=C/c3ccc(-c4ccc(Cl)cc4Cl)o3)c2=S)CC1 | – | – | 20 µM (inactive) | 39.4 µM (inactive) | 24.2 | 21.4 µM (inactive) | 21.3 µM (inactive) | 19.6 µM (inactive) | 23.5 µM (inactive) | 24.5 µM (inactive) | – | 22.1 µM (inactive) | 26.2 µM (inactive) | 21.7 µM (inactive) | 54.5 µM (inactive) | – | 19.3 µM (inactive) | 33.2 µM (inactive) | 22.4 µM (inactive)
CC(C)CC(NC(=O)C(CI)Cc1ccccc1)C(=O)Nc1ccccc1 (centres undefined) | > 100 µM (inactive) | > 100 µM (inactive) | > 100 µM (inactive) | > 100 µM (inactive) | > 100 | – | > 100 µM (inactive) | > 100 µM (inactive) | > 100 µM (inactive) | > 100 µM (inactive) | > 100 µM (inactive) | > 100 µM (inactive) | > 100 µM (inactive) | > 100 µM (inactive) | – | > 100 µM (inactive) | > 100 µM (inactive) | > 100 µM (inactive) | > 100 µM (inactive)
C/C=C(/C)C(=O)O[C@H]1C[C@@H]2[C@@H](O)c3occ(C)c3C[C@]2(C)[C@@H](C)C1 | 17.1 µM (inactive) | 16.2 µM (inactive) | 14.8 µM (inactive) | 15.8 µM (inactive) | 18.7 | 17.4 µM (inactive) | 10.4 µM (inactive) | 20.9 µM (inactive) | 18.7 µM (inactive) | 15.2 µM (inactive) | 15.8 µM (inactive) | 22.4 µM (inactive) | 14.6 µM (inactive) | 14.2 µM (inactive) | 16 µM (inactive) | 14.1 µM (inactive) | 14.8 µM (inactive) | – | –
COc1ccc(/C=C2\NC(=S)N(CN3CCOCC3)C2=O)cc1 | > 100 µM (inactive) | > 100 µM (inactive) | > 100 µM (inactive) | > 100 µM (inactive) | > 100 | > 100 µM (inactive) | > 100 µM (inactive) | > 100 µM (inactive) | > 100 µM (inactive) | > 100 µM (inactive) | > 100 µM (inactive) | – | – | > 100 µM (inactive) | > 100 µM (inactive) | > 100 µM (inactive) | > 100 µM (inactive) | > 100 µM (inactive) | > 100 µM (inactive)
Cc1ccc2c(c1)C(=O)c1ccc(C)nc1C2=O | 35.7 µM (inactive) | 31.9 µM (inactive) | 49.4 µM (inactive) | 40.7 µM (inactive) | 16.9 | 37.8 µM (inactive) | 48.4 µM (inactive) | 27.4 µM (inactive) | 16.6 µM (inactive) | > 100 µM (inactive) | 8.71 µM (inactive) | – | 25.9 µM (inactive) | 24 µM (inactive) | 34.9 µM (inactive) | 20.4 µM (inactive) | 32.4 µM (inactive) | 40.9 µM (inactive) | 69.2 µM (inactive)
O=C(NCCCCCCO)c1cccc2cc3ccccc3nc12 | 16.4 µM (inactive) | 11.7 µM (inactive) | 17.7 µM (inactive) | 16.7 µM (inactive) | 17.9 | 17.9 µM (inactive) | 32.4 µM (inactive) | 20.4 µM (inactive) | 3.61 µM (inactive) | 16.7 µM (inactive) | – | 16 µM (inactive) | 13.3 µM (inactive) | 36.5 µM (inactive) | – | 24 µM (inactive) | 38.9 µM (inactive) | – | 16.1 µM (inactive)
Cc1c(F)c(NC(=O)CN(C)C)c2c(=O)cc(-c3ccc(NC(=O)CN(C)C)c(F)c3)oc2c1F | 15.4 µM (inactive) | 10.9 µM (inactive) | 13.6 µM (inactive) | – | 14.5 | 16.6 µM (inactive) | 13.6 µM (inactive) | 13.4 µM (inactive) | 16.4 µM (inactive) | 11.2 µM (inactive) | 26.3 µM (inactive) | 9.35 µM (inactive) | 17.5 µM (inactive) | 14.8 µM (inactive) | 16.6 µM (inactive) | 17.8 µM (inactive) | 14.2 µM (inactive) | 13.6 µM (inactive) | 19.2 µM (inactive)
CC1=NN(c2nc(N)nc(-c3sccc3N)n2)C(C)(C)C1 | > 100 µM (inactive) | 79.1 µM (inactive) | > 100 µM (inactive) | 82.6 µM (inactive) | 59.4 | > 100 µM (inactive) | 44.1 µM (inactive) | 78 µM (inactive) | 75.9 µM (inactive) | 83.9 µM (inactive) | 47.3 µM (inactive) | 81.1 µM (inactive) | 32.7 µM (inactive) | 37.1 µM (inactive) | > 100 µM (inactive) | > 100 µM (inactive) | > 100 µM (inactive) | > 100 µM (inactive) | –
O=C1CC(CC(O)C(O)C(O)CO)CC(=O)N1 (centres undefined) | > 100 µM (inactive) | > 100 µM (inactive) | > 100 µM (inactive) | > 100 µM (inactive) | > 100 | > 100 µM (inactive) | > 100 µM (inactive) | > 100 µM (inactive) | > 100 µM (inactive) | > 100 µM (inactive) | > 100 µM (inactive) | > 100 µM (inactive) | > 100 µM (inactive) | > 100 µM (inactive) | > 100 µM (inactive) | > 100 µM (inactive) | > 100 µM (inactive) | > 100 µM (inactive) | –
Cc1coc2c1CC1OC1(C)CCC1OC1(C)C2 (centres undefined) | > 100 µM (inactive) | > 100 µM (inactive) | > 100 µM (inactive) | > 100 µM (inactive) | > 100 | > 100 µM (inactive) | > 100 µM (inactive) | > 100 µM (inactive) | > 100 µM (inactive) | > 100 µM (inactive) | – | > 100 µM (inactive) | > 100 µM (inactive) | > 100 µM (inactive) | > 100 µM (inactive) | > 100 µM (inactive) | > 100 µM (inactive) | > 100 µM (inactive) | > 100 µM (inactive)
COc1cc(Nc2nnc3n2S(=O)(=O)c2cc(C)c(Cl)cc2S3)cc(OC)c1 | 5.21 µM (inactive) | 13.2 µM (inactive) | 10.7 µM (inactive) | 15.4 µM (inactive) | 17.7 | 11.9 µM (inactive) | 13.2 µM (inactive) | 13.6 µM (inactive) | 4.68 µM (inactive) | 4.29 µM (inactive) | 2.17 µM (inactive) | 23.8 µM (inactive) | 2.61 µM (inactive) | 15.6 µM (inactive) | 11.5 µM (inactive) | 24.8 µM (inactive) | 10.9 µM (inactive) | 11.6 µM (inactive) | –
COc1cc(C2SCCCCCCCCCCSC(c3ccc(O)c(OC)c3)SCCCCCCCCCCS2)ccc1O (centres undefined) | > 100 µM (inactive) | > 100 µM (inactive) | > 100 µM (inactive) | > 100 µM (inactive) | > 100 | > 100 µM (inactive) | > 100 µM (inactive) | > 100 µM (inactive) | > 100 µM (inactive) | 26.3 µM (inactive) | 58.1 µM (inactive) | – | > 100 µM (inactive) | > 100 µM (inactive) | 52.1 µM (inactive) | > 100 µM (inactive) | > 100 µM (inactive) | > 100 µM (inactive) | > 100 µM (inactive)
